Results: ChEMBL document CHEMBL1201862, “PubChem BioAssay data set” (2004)
Active and inactive are the calls of the source.

How the values were obtained:
Vero [1] = experiment: cells; type: functional, cell-based; details: Chlorocebus sabaeus
Vero [2] = experiment: cells; type: functional; details: Chlorocebus sabaeus
[3] = target: T1, Short transient receptor potential channel 4 (Mus musculus, UniProt Q9QUQ5); experiment: block of DAMGO-driven TRPC4 calcium entry – cell-based, HEK293 TRPC4/mu-opioid, Fluo-4 calcium, dose response (AID 434942); type: functional;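 note: potency of inhibitors blocking the TRPC4 calcium response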
T1 sequence (Q9QUQ5 whole entry): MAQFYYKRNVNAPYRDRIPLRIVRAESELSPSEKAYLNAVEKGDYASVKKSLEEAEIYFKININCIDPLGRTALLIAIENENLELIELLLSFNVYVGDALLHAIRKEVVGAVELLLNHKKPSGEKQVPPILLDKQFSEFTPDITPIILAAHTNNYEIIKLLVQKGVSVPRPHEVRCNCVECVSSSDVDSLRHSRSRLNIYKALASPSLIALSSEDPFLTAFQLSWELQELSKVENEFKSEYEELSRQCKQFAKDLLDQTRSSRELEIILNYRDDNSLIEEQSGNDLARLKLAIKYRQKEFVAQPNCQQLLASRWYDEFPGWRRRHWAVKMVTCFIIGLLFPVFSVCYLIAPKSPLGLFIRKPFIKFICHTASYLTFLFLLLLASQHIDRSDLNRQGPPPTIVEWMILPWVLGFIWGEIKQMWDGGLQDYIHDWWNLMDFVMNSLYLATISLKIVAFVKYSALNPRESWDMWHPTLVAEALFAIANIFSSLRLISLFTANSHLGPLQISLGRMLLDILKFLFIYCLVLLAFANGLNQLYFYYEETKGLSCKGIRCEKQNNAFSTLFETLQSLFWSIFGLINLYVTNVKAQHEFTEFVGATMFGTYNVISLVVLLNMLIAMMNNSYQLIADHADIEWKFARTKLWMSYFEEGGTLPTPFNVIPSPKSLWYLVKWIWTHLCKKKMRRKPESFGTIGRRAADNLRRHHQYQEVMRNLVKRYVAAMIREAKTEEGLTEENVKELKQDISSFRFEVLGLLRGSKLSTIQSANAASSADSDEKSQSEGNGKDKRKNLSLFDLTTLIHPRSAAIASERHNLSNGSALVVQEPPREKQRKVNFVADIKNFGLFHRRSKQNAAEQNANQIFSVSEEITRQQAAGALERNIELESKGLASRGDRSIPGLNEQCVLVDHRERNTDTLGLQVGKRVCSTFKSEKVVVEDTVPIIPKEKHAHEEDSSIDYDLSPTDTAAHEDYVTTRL

INS1 = experiment: INS-1E survival protection against cytokine death – cell-based, luminescence, retest, dose response (AID 449756); type: functional; details: Rattus norvegicus;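 note: cell death triggered by IL-1 beta plus TNF-alpha plus IFN-gamma mixture; protective hits raise ATP signal compared with cytokine alone wells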
[4] = target: Alkaline phosphatase, placental type (Homo sapiens, UniProt P05187); experiment: human placental alkaline phosphatase inhibition – biochemical, luminescence, confirmation (AID 1512); type: functional
[5] = target: T2, Alkaline phosphatase, tissue-nonspecific isozyme (Homo sapiens, UniProt P05186); experiment: potency against alkaline phosphatase TNAP – biochemical, luminescent, dose response, SAR follow-up (AID 1056)
T2 sequence (P05186 whole entry): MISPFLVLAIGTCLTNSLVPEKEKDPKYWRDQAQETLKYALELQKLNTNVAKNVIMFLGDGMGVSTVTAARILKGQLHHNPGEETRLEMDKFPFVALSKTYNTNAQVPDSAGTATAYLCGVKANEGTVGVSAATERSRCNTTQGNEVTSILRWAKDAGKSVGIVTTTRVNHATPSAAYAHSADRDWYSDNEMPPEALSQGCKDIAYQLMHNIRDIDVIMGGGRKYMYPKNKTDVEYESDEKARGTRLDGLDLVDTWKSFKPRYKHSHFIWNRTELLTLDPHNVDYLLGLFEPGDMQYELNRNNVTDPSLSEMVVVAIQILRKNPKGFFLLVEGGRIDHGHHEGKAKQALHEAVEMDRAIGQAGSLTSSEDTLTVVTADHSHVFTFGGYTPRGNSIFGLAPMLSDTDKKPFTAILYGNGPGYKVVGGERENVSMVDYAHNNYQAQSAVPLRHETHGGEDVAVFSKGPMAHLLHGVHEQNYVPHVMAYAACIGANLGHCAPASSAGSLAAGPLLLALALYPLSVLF

Escherichia coli = experiment: microbe, parasite or virus in culture
[6] = luciferase reporter signal suppression in cells – H4 neuroglioma cells, luminescence, dose response (AID 1990); type: functional, cell-based
BJ [7] = experiment: BJ-TERT fibroblast viability loss – cell-based, RAS-independent, luminescence, dose response (AID 1933); type: functional; details: Homo sapiens
[8] = Luminescence Cell-Based Dose Response HTS to Identify Inhibitors of 5'UTR Stem-Loop Driven Prion Protein mRNA Translation in H4 Neuroglioblastoma Cells. [Related pubchem assays: 1827 (Project Summary), 1813 (Primary HTS)]; type: functional
[9] = alpha-synuclein stem-loop luciferase translation blockers – H4 neuroglioma cells, luminescence, confirmation (AID 1988); type: functional, cell-based
BJ [10] = experiment: BJ-TERT-LT-ST fibroblast viability loss – cell-based, RAS-independent, luminescence, dose response (AID 1935); type: functional; details: Homo sapiens;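 note: BJ fibroblasts immortalized with TERT plus LT and ST oncogenes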
[11] = DRD fibroblast viability loss – cell-based, non-viral oncogenic, luminescence, dose response (AID 1934); type: functional; details: Homo sapiens
[12] = Luminescence Cell-Based Dose Retest to Confirm Inhibitors of Cancer Stem Cells. [Related pubchem assays (depositor defined):AID2717, AID2721]; type: functional; details: Homo sapiens
[13] = HEK-293T viability loss after treatment – luminescence, T-cell screen hits, cytotoxicity control for TCR NF-kB inhibitor project, dose response (AID 489026); type: functional, cell-based;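 note: cells exposed to compound about 14 hours before the viability readout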
[14] = target: FAD-linked sulfhydryl oxidase ALR (Homo sapiens, UniProt P55789); experiment: ALR-catalysed DTT oxidation blockers – biochemical, H2O2 detection, luminescence, cherry-pick, dose response (AID 493248)
Genome polyprotein = Genome polyprotein (dengue virus type 2, UniProt P29990); experiment: flavivirus cap methylation enzyme inhibition – biochemical, confirmation dose response, primary screen (AID 588689); type: functional
[15] = target: Peroxisome proliferator-activated receptor gamma/Nuclear receptor coactivator 1 (Homo sapiens, UniProt P37231); experiment: (§1) TR-FRET dose response biochemical High Throughput Screening assay for agonists of the steroid receptor coactivator 1 (SRC-1) recruitment by the peroxisome proliferator-activated receptor gamma (PPAR gamma): non-selective agonists. [Related pubchem assays (depositor defined):AID1300, AID1808, AID504735, AID631]; type: protein assay
[16] = target: Peroxisome proliferator-activated receptor gamma/Nuclear receptor coactivator 3 (Homo sapiens, UniProt P37231); experiment: as §1, with “3 (SRC-3)” for “1 (SRC-1)”, “assays: 1301 (Confirmation screen.), 1048 (Primary screen.)]” for “assays (depositor defined):AID1300, AID1808, AID504735, AID631]”; type: functional
[17] = target: Peroxisome proliferator-activated receptor gamma/Nuclear receptor coactivator 2 (Homo sapiens, UniProt P37231); experiment: TR-FRET dose response biochemical High Throughput Screening assay for agonists of the steroid receptor coactivator 2 (SRC-2) recruitment by the peroxisome proliferator-activated receptor gamma (PPAR gamma): non-selective agonists. [Related pubchem assays: 1297, 1032 ]; type: functional
[18] = target: T3, Carboxy-terminal domain RNA polymerase II polypeptide A small phosphatase 1 (Homo sapiens, UniProt Q9GZU7); experiment: CTDSP1 inhibitors, concentration-response, biochemical, absorbance readout, ultra-high-throughput screen actives (AID 540297); type: functional
T3 sequence (Q9GZU7 whole entry): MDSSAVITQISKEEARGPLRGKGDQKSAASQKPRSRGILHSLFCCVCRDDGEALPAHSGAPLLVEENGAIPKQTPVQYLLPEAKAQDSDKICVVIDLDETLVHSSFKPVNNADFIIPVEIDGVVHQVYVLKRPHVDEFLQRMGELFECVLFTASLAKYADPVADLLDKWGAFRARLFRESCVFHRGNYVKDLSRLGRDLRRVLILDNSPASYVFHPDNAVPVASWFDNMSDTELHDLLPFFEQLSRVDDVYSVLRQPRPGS

[19] = Luminescence Cell-Based Dose Confirmation HTS to Identify Activators of 5'UTR Stem-Loop Driven Alpha-Synuclein mRNA Translation in H4 Neuroglioblastoma Cells. [Related pubchem assays: 1829 (Project Summary), 1814 (Primary HTS)]; type: functional
[20] = Luminescence Cell-Based Dose Response HTS to Identify Activators of Luciferase Translation or Activity in H4 […] Cells. [Related pubchem assays: 1829 (Project Summary), 1814 (Primary HTS)]; type: functional
H4 = experiment: Luminescence Cell-Based Dose Response HTS to Identify Activators of 5'UTR Stem-Loop Driven Prion Protein mRNA Translation in H4 Neuroglioblastoma Cells. [Related pubchem assays: 1829 (Project Summary), 1814 (Primary HTS)]; type: functional; details: Homo sapiens
[21] = Trypanosoma cruzi growth suppression in host cells – NIH3T3 host cells, beta-gal luminescence, confirmation (AID 2044); type: functional, cell-based;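 note: intracellular parasites grown in NIH/3T3 mouse fibroblasts as host cells; luminescent beta-galactosidase reporter signal from transgenic T. cruzi replicating inside host cells; inhibitors lower the luminescence signal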
[22] = NIH3T3 cell viability loss – ATP luminescence, mouse fibroblasts, counter-screen, dose response (AID 2010); type: functional, cell-based;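 note: cells exposed to compound for about 90 hours before reading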
[23] = target: T4, High affinity choline transporter 1 (Homo sapiens, UniProt Q9GZV3); experiment: human choline transporter blockers, potency – cell-based, 5-point CRC, membrane potential dye, dose response (AID 504840); type: functional
T4 sequence (Q9GZV3 whole entry): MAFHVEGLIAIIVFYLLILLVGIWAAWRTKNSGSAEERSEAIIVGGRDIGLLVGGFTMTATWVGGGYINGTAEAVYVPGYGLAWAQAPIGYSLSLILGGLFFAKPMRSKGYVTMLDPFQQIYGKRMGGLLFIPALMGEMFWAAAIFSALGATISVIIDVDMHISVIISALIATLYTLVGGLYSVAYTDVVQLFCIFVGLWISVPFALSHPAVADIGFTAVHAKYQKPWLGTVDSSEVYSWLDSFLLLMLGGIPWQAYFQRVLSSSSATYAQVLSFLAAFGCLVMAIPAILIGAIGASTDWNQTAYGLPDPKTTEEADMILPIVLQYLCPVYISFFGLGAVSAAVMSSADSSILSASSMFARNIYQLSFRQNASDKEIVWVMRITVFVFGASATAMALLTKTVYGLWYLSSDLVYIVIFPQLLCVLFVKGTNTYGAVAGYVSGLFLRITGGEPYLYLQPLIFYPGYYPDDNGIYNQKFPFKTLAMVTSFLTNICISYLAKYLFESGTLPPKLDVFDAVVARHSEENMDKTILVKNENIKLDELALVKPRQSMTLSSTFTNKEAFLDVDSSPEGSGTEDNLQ

Alkaline phosphatase, placental type, sequence (P05187 whole entry): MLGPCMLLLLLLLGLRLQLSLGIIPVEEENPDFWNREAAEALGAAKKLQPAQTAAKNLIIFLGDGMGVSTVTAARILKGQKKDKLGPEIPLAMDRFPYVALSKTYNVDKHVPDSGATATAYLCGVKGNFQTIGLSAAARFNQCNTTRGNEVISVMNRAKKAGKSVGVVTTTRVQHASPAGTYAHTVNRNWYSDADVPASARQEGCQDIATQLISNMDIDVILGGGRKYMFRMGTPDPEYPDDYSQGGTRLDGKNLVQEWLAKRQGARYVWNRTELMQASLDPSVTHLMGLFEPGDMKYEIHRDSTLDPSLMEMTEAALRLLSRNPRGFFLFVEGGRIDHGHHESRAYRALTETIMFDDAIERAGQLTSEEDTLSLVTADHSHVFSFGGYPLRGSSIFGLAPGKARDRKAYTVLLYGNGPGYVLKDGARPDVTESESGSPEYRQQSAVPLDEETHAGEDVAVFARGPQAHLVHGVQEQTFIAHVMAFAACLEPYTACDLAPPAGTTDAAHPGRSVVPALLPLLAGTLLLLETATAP
Peroxisome proliferator-activated receptor gamma/Nuclear receptor coactivator 1, sequence (P37231 whole entry): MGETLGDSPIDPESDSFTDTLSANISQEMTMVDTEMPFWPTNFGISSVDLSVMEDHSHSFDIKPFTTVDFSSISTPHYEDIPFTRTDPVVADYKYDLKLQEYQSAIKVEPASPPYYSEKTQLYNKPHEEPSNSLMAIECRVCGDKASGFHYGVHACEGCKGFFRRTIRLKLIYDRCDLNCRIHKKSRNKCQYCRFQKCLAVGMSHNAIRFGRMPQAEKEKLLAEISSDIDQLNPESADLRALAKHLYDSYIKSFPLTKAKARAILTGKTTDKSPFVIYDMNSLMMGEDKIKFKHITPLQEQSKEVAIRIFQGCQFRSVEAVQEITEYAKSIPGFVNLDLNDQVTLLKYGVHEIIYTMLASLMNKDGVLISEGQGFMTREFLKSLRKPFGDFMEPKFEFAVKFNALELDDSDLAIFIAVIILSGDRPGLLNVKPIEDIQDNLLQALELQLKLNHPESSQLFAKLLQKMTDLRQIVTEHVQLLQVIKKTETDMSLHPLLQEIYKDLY
Peroxisome proliferator-activated receptor gamma/Nuclear receptor coactivator 1, sequence (Q15788 whole entry, further chain): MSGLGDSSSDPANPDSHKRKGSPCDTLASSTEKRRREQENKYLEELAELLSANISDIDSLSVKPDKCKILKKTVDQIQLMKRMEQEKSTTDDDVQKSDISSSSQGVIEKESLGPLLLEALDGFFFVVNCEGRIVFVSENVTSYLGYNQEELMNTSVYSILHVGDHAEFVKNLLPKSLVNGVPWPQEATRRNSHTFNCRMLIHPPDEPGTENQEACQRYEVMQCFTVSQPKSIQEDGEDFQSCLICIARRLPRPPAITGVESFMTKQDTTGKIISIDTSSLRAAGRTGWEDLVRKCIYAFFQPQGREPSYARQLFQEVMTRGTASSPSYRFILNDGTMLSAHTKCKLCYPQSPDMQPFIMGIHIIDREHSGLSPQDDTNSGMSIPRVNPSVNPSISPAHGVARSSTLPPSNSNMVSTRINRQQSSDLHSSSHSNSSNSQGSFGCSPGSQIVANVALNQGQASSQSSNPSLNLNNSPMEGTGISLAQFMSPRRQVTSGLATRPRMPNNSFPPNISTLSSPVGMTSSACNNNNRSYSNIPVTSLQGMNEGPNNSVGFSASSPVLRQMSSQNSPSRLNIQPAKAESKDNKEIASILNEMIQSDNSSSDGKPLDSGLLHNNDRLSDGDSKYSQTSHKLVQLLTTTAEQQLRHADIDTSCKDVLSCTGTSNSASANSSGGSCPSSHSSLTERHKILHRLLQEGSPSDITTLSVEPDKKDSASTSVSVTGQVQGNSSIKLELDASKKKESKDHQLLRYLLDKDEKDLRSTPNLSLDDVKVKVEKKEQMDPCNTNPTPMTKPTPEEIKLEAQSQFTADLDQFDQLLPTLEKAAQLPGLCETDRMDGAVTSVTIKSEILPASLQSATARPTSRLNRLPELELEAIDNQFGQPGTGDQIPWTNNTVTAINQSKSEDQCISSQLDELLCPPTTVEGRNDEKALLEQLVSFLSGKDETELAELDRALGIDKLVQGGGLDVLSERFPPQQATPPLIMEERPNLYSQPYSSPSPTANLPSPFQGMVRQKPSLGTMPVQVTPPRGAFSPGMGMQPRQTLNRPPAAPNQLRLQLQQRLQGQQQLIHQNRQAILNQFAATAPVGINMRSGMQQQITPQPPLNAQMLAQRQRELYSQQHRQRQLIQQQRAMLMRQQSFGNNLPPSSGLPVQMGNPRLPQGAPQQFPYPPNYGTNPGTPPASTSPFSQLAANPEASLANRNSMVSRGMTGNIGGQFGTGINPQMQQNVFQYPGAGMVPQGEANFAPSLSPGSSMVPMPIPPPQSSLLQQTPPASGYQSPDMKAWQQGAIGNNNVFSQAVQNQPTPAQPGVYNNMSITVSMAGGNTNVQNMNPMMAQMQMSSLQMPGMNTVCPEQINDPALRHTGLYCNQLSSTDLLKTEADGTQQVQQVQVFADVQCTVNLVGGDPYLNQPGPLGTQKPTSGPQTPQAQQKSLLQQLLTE
Peroxisome proliferator-activated receptor gamma/Nuclear receptor coactivator 3, sequence (P37231 whole entry): as the sequence (P37231 whole entry) above
Peroxisome proliferator-activated receptor gamma/Nuclear receptor coactivator 3, sequence (Q9Y6Q9 whole entry, further chain): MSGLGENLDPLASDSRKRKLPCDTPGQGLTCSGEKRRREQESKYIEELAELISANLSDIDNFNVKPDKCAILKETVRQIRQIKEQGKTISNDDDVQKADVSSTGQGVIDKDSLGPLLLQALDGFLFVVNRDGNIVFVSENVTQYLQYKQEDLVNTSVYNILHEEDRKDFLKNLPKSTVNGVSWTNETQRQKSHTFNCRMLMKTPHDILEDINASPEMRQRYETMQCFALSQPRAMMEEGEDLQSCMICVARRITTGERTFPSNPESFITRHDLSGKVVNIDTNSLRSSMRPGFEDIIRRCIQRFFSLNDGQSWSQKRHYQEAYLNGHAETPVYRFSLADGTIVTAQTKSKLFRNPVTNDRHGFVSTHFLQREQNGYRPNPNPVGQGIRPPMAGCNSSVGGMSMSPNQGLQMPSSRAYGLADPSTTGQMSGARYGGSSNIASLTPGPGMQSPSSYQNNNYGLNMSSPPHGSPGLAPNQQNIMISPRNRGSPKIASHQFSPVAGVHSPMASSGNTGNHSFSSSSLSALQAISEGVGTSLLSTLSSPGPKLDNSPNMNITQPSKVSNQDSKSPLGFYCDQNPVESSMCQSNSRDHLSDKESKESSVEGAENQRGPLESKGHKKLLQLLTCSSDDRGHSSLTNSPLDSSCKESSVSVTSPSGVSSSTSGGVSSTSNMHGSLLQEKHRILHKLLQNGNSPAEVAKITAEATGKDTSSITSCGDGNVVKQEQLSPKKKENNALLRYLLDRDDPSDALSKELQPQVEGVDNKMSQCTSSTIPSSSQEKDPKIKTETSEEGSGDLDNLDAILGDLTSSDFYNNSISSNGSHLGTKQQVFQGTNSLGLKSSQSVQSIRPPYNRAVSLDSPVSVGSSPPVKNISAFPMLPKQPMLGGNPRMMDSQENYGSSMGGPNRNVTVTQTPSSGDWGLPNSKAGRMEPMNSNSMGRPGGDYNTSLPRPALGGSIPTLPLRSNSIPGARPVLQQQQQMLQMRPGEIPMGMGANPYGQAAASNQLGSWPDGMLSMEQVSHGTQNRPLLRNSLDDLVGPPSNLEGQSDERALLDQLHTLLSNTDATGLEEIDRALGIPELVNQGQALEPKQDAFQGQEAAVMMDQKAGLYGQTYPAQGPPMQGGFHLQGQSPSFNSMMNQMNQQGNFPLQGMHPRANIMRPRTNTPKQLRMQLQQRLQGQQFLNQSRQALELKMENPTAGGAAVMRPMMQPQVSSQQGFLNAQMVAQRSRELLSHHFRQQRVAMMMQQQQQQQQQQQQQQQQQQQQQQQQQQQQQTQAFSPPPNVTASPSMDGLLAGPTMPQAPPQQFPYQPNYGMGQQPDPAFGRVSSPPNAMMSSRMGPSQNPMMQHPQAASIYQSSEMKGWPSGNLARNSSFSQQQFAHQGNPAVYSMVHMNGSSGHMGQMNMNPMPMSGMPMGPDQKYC
FAD-linked sulfhydryl oxidase ALR, sequence (P55789 whole entry): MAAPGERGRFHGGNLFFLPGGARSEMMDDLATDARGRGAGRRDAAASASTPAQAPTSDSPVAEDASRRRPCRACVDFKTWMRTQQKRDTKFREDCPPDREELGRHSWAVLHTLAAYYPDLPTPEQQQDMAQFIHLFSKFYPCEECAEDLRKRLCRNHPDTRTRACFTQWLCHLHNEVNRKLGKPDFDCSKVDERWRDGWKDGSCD

CC(=O)/C=C1/C(=O)Nc2ccccc21
IC50 (Vero [1]): > 25 µM (active)
CC50 (Vero [2]): 21.9 µM (active)

Cc1ccccc1OCCn1c(C)nc2ccccc21
EC50 [3]: 1.19 µM (active)
AC50 (INS1): 8.1 µM (active)

Nc1nnc(-c2cc3ccccc3oc2=O)s1
IC50 [4]: > 100 µM (inactive)
IC50 [5]: > 100 µM (inactive)

CC(C)(C)c1ccc(C(=O)n2cnc3ccccc32)cc1
AC50 (Escherichia coli): 33.1 µM (active)

Cc1nc2ccccc2c(=O)n1CCCO
AC50 (Escherichia coli): 27.2 µM (active)

COc1cccc(-c2cc(O)c3cc(NC(=O)c4ccc(N(C)C)cc4)ccc3n2)c1
EC50 [6]: 0.334 µM (active)
EC50 (BJ [7]): 0.664 µM (active)
EC50 [8]: 1.24 µM (active)
EC50 [9]: 0.296 µM (active)
EC50 (BJ [10]): 0.729 µM (inconclusive)
EC50 [11]: 0.599 µM (active)
AC50 [12]: 0.477 µM (active)
IC50 [13]: > 80 µM (inactive)

CC(=O)Nc1cc[n+](CC(=O)c2cccc([N+](=O)[O-])c2)cc1
IC50 (Vero [1]): 6.55 µM (active)

COc1cccc(/C=C2\SC(=S)N(NS(=O)(=O)c3ccc(C)cc3)C2=O)c1OC
EC50 [3]: 8.41 µM (active)
AC50 [14]: 9.05 µM (active)
IC50 (Genome polyprotein): 36.2 µM (active)

COc1ccc(CC(=O)NNC(=O)COc2ccc3ccccc3c2)cc1
EC50 [15]: 2 µM (active)
EC50 [16]: 3.65 µM (active)
EC50 [17]: 1.93 µM (active)
IC50 [18]: 9.26 µM (active)

Cc1cc2ncn(CCOc3ccccc3)c2cc1C
EC50 [19]: 19.4 µM (active)
EC50 [20]: 39 µM (active)
EC50 (H4): 38.8 µM (active)
AC50 (Escherichia coli): 41.4 µM (active)

c1ccc(CN2CCN(Cc3c[nH]c4ccccc34)CC2)cc1
EC50 [21]: 0.277 µM (active)
EC50 [22]: > 30 µM (not active)
EC50 [3]: 5.96 µM (active)
AC50 (INS1): 8.01 µM (active)

COc1cc(S(=O)(=O)Nc2cc(C)cc(C)c2)ccc1F
AC50 (Escherichia coli): 64.9 µM (active)

CC(C)COC(=O)CNc1nnc(S)nc1O
EC50 [15]: 2.86 µM (active)
EC50 [16]: 37.9 µM (not active)
EC50 [17]: 3.42 µM (active)

Cc1cc(C)cc(NC(=O)c2cc(C)n(Cc3cccs3)c2C)c1
IC50 [13]: > 80 µM (inactive)

O=C(CSc1ncnc2c1oc1ccccc12)Nc1cccc(C(F)(F)F)c1
EC50 [15]: > 79.4 µM (inactive)
EC50 [16]: > 79.4 µM (not active)
EC50 [17]: 23 µM (not active)

CCc1nccn1CC(=O)c1ccc(O)c(O)c1
IC50 [4]: 3.73 µM (active)
IC50 [5]: 62.5 µM (active)

CC(=O)Nc1ccc(Nc2cc(C)c3ccccc3n2)cc1
IC50 [23]: 11.2 µM (active)

Cc1cc(C)c2c(O)nc(SCC(=O)c3ccc(O)c(O)c3)nc2n1
IC50 [4]: 8.77 µM (active)
IC50 [5]: > 100 µM (inactive)

CC(=O)Nc1ccc(CCNC(=O)c2ccc3ccccc3c2O)cc1
IC50 (Vero [1]): > 25 µM (active)
